Results on 20 compounds are retold here after US20050143628A1, “Methods for characterizing tissue or organ condition or status” (priority 2003, published 2005).

The subject of data set [1] is rat liver. Particulars: for Pathological observations in liver: model false positive. An excerpt: (§1) After 3-day treatment, rat liver samples were collected for RNA extraction and histo-pathology examination. Sera from the same rats were subjected to clinical chemistry monitoring.
Data set [2] concerns rat liver. The experiment in a line: Serum clinical chemistry: alanine aminotransferase (ALT) after 3-day treatment.
Description: as §1
(§2) Liver injury was identified by the individual clinical chemistry measurement if its level was outside +/− two standard deviations of the averaged level of normal animals.

The subject of data set [3] is rat liver. The experiment in a line: Serum clinical chemistry: aspartate aminotransferase (AST) after 3-day treatment.
Description: as §1, §2

Data set [4] relates to rat liver. The experiment in a line: Serum clinical chemistry: alkaline phosphatase (ALP) after 3-day treatment.
Description: as §1, §2

The test system of data set [5] is rat liver. The experiment in a line: Serum clinical chemistry: total bilirubin (Tbil) after 3-day treatment.
Description: as §1, §2

Data set [6] concerns rat liver. Put plainly: Serum clinical chemistry: cholesterol (Chol) after 3-day treatment.
Description: as §1, §2

Data set [7] deals with rat liver. The following applies: in vivo, 150 mg/kg/day.
For data set [8], the system named is rat liver. The experiment in a line: Hepatotoxicity score (HS) combined from five clinical chemistry measurements, threshold -0.25. Particulars: 3-day treatment.
Setting [9] is: rat serum, dose 500 mg/kg/day, individual rats.
Setting [10] is: SD rats, 10 mg/kg/day, 3-day treatment, the other two of three treated rats.
[11] abbreviates: rat serum, dose 50 mg/kg/day, individual rats.
Where [12] appears, read: rat serum, dose 1 mg/kg/day, individual rats.
Setting [13] is: rat serum, dose 320 mg/kg/day, individual rats.
The mark [14] stands for this setting: rat serum, dose 45 mg/kg/day, individual rats.
Where [15] appears, read: rat serum, dose 450 mg/kg/day, individual rats.
Setting [16] is: rat serum, dose 160 mg/kg, individual rats.
Setting [17] is: rat serum, dose 1600 mg/kg, individual rats.
[18] abbreviates: rat serum, dose .001 mg/kg/day, individual rats.
The mark [19] stands for this setting: rat serum, dose 100 mg/kg, individual rats.
Setting [20] is: rat serum, dose 1000 mg/kg, individual rats.

Several values for one entry are separate records, joined by “and”; a condition that tells them apart may be missing. Equal values may be shown once. Read-outs that look alike come from different tables or passages of the source.

Turning to `CCSCC[C@H](N)C(=O)O` [L-ethionine], in the data set with rat liver [1] (50 mg/kg/day treated group, 3-day treatment), the “Pathological observations in liver” value is on record as “noticeable pathological changes”.

With `CC1=C(/C=C/C(C)=C/C=C/C(C)=C/CO)C(C)(C)CCC1` [Retinol], in the data set on rat liver [2] (setting [9]), the ALT was 27.000 and 31.000 and 37.000. The AST in the data set with rat liver [3] (setting [9]) is 88.000 and 157.000 and 112.000. The ALP in the data set with rat liver [4] (setting [9]) was 259.000 and 241.000 and 348.000. This compound also gave a TBil with rat liver [5] (setting [9]) of 0.200. In addition, in the data set on rat liver [6] (setting [9]), the Chol. is 67.000 and 50.000 and 47.000.

As to `CC(=O)Oc1ccccc1C(=O)O` [aspirin], in the data set with rat liver [1] (rat, in vivo, 150 mg/kg/day), the “Histopathology examination of liver” value was “Cellular abnormality”. In the data set with rat liver [7], the “Liver damage call by hepatotoxicity score versus individual clinical chemistry measures” value is “positives detected by the hepatotoxicity score”.

Consider `CN1C(=O)CN=C(c2ccccc2)c2cc(Cl)ccc21` [diazepam], for which, in the data set with rat liver [5] (rat, in vivo), the TBil turned out to be 0.100.

For the compound `CCN(CC)N=O` [diethylnitrosamine], in the data set on rat liver [1] (100 mg/kg/day treated group, 3-day treatment), the “Pathological observations in liver” value is recorded as “noticeable pathological changes”.

Turning to `CN(C)C=O` [dimethlformamide], the “Pathological observations in liver” value with rat liver [1] (1000 mg/kg/day treated group, 3-day treatment) is reported as “noticeable pathological changes”.

As to `C[C@]12CC[C@@H]3c4ccc(O)cc4CC[C@H]3[C@@H]1CC[C@@H]2O[C@@H]1O[C@H](C(=O)O)[C@@H](O)[C@H](O)[C@H]1O` [estradiol glucuronide], the “Liver injury by ALT” value with rat liver [2] (setting [10]) is reported as “showed liver injury”. In the data set on rat liver [4] (setting [10]), the “Liver injury by ALP” value is on record as “showed liver injury”. Also, in the data set with rat liver [1] (SD rats, 10 mg/kg/day treatment group, 3-day treatment), the “Histopathology examination of liver” value is “Cellular abnormality”. The “Liver damage call by hepatotoxicity score versus individual clinical chemistry measures” value in the data set on rat liver [8] (SD rat, high dose 10 mg/kg/day) is “positives detected by the hepatotoxicity score”.

Turning to `CN(C)C(=N)N=C(N)N` [metformin], the “Histopathology examination of liver” value in the data set on rat liver [1] (rat, in vivo, 900 mg/kg/day) is given as “no observable liver abnormality”. Further, the “Liver damage call by hepatotoxicity score versus individual clinical chemistry measures” value in the data set with rat liver [8] (one SD rat, 900 mg/kg/day) is “false negatives”.

As to `C[C@H]1C(=O)O[C@@H]2CCN3CC=C(COC(=O)[C@](C)(O)[C@]1(C)O)[C@H]23` [monocrotaline, reference compound], the ALT in the data set on rat liver [2] (setting [11]) was 44.000 and 64.000 and 610.000. The AST in the data set with rat liver [3] (setting [11]) is 123.000 and 135.000 and 270.000. For the same compound, in the data set on rat liver [4] (setting [11]), the ALP is 194.000 and 211.000 and 298.000. Besides, the TBil in the data set with rat liver [5] (setting [11]) was 0.200 (2×) and 1.500. In the data set with rat liver [6] (setting [11]), the Chol. is 54.000 and 61.000 and 69.000. Moreover, in the data set on rat liver [1] (SD rat, 50 mg/kg/day, 3-day treatment, HS false negative sample), the “Histopathology examination of liver” value is listed as “no observable liver abnormality”. For the same compound, in the data set on rat liver [8] (one SD rat, high dose 50 mg/kg/day), the “Liver damage call by hepatotoxicity score versus individual clinical chemistry measures” value was “false negatives”.

In the case of `CC[C@H]1/C=C/C=C/C[C@@H](C)[C@H](O)[C@@](C)(O)C(=O)[C@@H](C)[C@H](O)[C@@H](C)C(=O)[C@@H](C)[C@H](O)[C@@H](C)/C=C/C(=O)O[C@@H]2[C@H](C)[C@H](CC1)O[C@]1(CC[C@H](C)[C@H](C[C@@H](C)O)O1)[C@H]2C` [oligomycin], the ALT in the data set with rat liver [2] (setting [12]) was 44.000 and 46.000 and 58.000. The AST in the data set on rat liver [3] (setting [12]) was 72.000 (2×) and 75.000. Besides, the ALP with rat liver [4] (setting [12]) was 361.000 and 289.000 and 397.000. The compound also showed a TBil with rat liver [5] (setting [12]) of 0.200. Further, in the data set on rat liver [6] (setting [12]), the Chol. is 47.000 and 72.000 and 59.000.

As for `C1CCC(C(CC2CCCCN2)C2CCCCC2)CC1` (centres unmarked) [perhexilene, reference compound], the ALT in the data set with rat liver [2] (setting [13]) was 51.000 and 129.000 and 31.000. Further, in the data set on rat liver [3] (setting [13]), the AST was 103.000 and 116.000 and 98.000. Moreover, the ALP with rat liver [4] (setting [13]) was 248.000 and 340.000 and 245.000. The same compound yielded a TBil in the data set with rat liver [5] (setting [13]) of 0.100. Further, the Chol. with rat liver [6] (setting [13]) was 45.000 and 44.000 and 66.000.

As for `O=C1NC(=O)C(c2ccccc2)(c2ccccc2)N1` [phenytoin], the ALT in the data set with rat liver [2] (setting [14]) is 26.000 and 19.000; with rat liver [2] (setting [15]) it was 49.000 and 38.000 and 24.000. Besides, the AST was 65.000 and 81.000 in the data set on rat liver [3] (setting [14]); 130.000 and 71.000 and 65.000 in the data set with rat liver [3] (setting [15]). Moreover, the ALP in the data set with rat liver [4] (setting [14]) is 199.000 and 214.000; with rat liver [4] (setting [15]) it was 255.000 and 233.000 and 312.000. Further, the TBil with rat liver [5] (setting [14]) is 0.200; in the data set with rat liver [5] (setting [15]), 0.200 and 0.100 (2×). In addition, the Chol. was 77.000 and 71.000 in the data set with rat liver [6] (setting [14]); 61.000 and 73.000 and 66.000 with rat liver [6] (setting [15]).

For the compound `CN[C@@H]1[C@H](O)[C@H](NC)[C@H]2O[C@@]3(O)C(=O)C[C@@H](C)O[C@H]3O[C@@H]2[C@H]1O` [spectinomycin], the ALT in the data set with rat liver [2] (setting [16]) is 52.000 and 36.000 and 46.000; with rat liver [2] (setting [17]), 60.000 and 44.000 and 30.000. The AST with rat liver [3] (setting [16]) is 83.000 and 74.000 and 70.000; with rat liver [3] (setting [17]), 98.000 and 95.000 and 86.000. Further, the ALP with rat liver [4] (setting [16]) was 174.000 and 181.000; with rat liver [4] (setting [17]), 246.000 and 189.000 and 176.000. Moreover, the TBil with rat liver [5] (setting [16]) and in the data set with rat liver [5] (setting [17]) was 0.100 each time. Also, the Chol. in the data set on rat liver [6] (setting [16]) is 60.000 and 59.000 and 54.000; in the data set with rat liver [6] (setting [17]), 36.000 and 62.000 and 26.000.

For the compound `CC/C(=C(\c1ccccc1)c1ccc(OCCN(C)C)cc1)c1ccccc1` [tamoxifen, reference compound], in the data set with rat liver [1] (rat, in vivo, 5 mg/kg/day), the “Histopathology examination of liver” value was “no observable liver abnormality”.

Turning to `CC(C)(C)c1ccc(C(O)CCCN2CCC(C(O)(c3ccccc3)c3ccccc3)CC2)cc1` (centres unmarked) [terfenadine], the TBil in the data set on rat liver [5] (rat, in vivo, 15 mg/kg) is reported as 0.100; with rat liver [5] (rat, in vivo, 150 mg/kg), 0.100.

For the compound `Cn1c(=O)c2[nH]cnc2n(C)c1=O` [theophylline], the TBil in the data set with rat liver [5] (rat, in vivo, 75 mg/kg) stood at 0.100.

On to TNFalpha, for which the ALT in the data set with rat liver [2] (setting [18]) is 53.000 and 48.000 and 55.000. In addition, the AST in the data set on rat liver [3] (setting [18]) was 70.000 (2×) and 59.000. Further, in the data set on rat liver [4] (setting [18]), the ALP is 728.000 and 255.000 and 312.000. Also, the TBil with rat liver [5] (setting [18]) was 0.200 (2×) and 0.100. The Chol. with rat liver [6] (setting [18]) is 50.000 and 60.000 (2×).

Turning to aflatoxin B, in the data set with rat liver [2] (rat, in vivo), the ALT was 81.000 and 48.000 and 59.000. Also, in the data set with rat liver [3] (rat, in vivo), the AST is 206.000 and 132.000 and 156.000. In addition, the ALP in the data set on rat liver [4] (rat, in vivo) was 297.000 and 166.000 and 217.000. The compound also displayed a TBil in the data set on rat liver [5] (rat, in vivo) of 0.200. In addition, in the data set with rat liver [6] (rat, in vivo), the Chol. was 64.000 and 75.000 and 63.000.

As to microcystin, in the data set with rat liver [2] (rat, in vivo), the ALT is 140.000 and 258.000 and 144.000. Moreover, in the data set with rat liver [3] (rat, in vivo), the AST is 204.000 and 384.000 and 296.000. In the data set on rat liver [4] (rat, in vivo), the ALP was 518.000 and 427.000 and 514.000. Further, the TBil with rat liver [5] (rat, in vivo) was 0.600 and 0.400. In addition, the Chol. in the data set on rat liver [6] (rat, in vivo) is 84.000 and 67.000 and 95.000.

Consider penicillin, for which the ALT is 51.000 and 41.000 and 44.000 in the data set on rat liver [2] (setting [19]); 52.000 (2×) and 25.000 and 42.000 with rat liver [2] (setting [20]). Also, the AST was 127.000 and 144.000 in the data set with rat liver [3] (setting [19]); 134.000 (2×) and 80.000 and 90.000 in the data set on rat liver [3] (setting [20]). Further, the ALP in the data set with rat liver [4] (setting [19]) is 290.000 and 247.000; in the data set with rat liver [4] (setting [20]), 215.000 (2×) and 247.000 and 253.000. In addition, the TBil with rat liver [5] (setting [19]) and in the data set on rat liver [5] (setting [20]) was 0.100 each time. Besides, the Chol. in the data set with rat liver [6] (setting [19]) was 49.000 and 37.000 and 69.000; in the data set on rat liver [6] (setting [20]) it was 41.000 (2×) and 43.000 and 73.000.
